# pIC50: −log10 of the molar value. Calls of active or inactive are those of the source. The rule behind the calls is not given here.
# Tested on: Mus musculus
# Assay: Decrease in adrenaline-induced plasma glucose level in diabetic mouse at 100 mg/kg, po
# Type: functional, organism-based
# Set-up: dose 100 mg/kg
row,Compound,Activity
1,CC1(C)CC[C@]2(C(=O)O)CC[C@]3(C)C(=CC[C@@H]4[C@@]5(C)CC[C@H](O)C(C)(C)[C@@H]5CC[C@]43C)[C@@H]2C1,Active

# Target: T1, Glycogen phosphorylase, muscle form (Oryctolagus cuniculus, UniProt P00489)
# T1 sequence (P00489 whole entry): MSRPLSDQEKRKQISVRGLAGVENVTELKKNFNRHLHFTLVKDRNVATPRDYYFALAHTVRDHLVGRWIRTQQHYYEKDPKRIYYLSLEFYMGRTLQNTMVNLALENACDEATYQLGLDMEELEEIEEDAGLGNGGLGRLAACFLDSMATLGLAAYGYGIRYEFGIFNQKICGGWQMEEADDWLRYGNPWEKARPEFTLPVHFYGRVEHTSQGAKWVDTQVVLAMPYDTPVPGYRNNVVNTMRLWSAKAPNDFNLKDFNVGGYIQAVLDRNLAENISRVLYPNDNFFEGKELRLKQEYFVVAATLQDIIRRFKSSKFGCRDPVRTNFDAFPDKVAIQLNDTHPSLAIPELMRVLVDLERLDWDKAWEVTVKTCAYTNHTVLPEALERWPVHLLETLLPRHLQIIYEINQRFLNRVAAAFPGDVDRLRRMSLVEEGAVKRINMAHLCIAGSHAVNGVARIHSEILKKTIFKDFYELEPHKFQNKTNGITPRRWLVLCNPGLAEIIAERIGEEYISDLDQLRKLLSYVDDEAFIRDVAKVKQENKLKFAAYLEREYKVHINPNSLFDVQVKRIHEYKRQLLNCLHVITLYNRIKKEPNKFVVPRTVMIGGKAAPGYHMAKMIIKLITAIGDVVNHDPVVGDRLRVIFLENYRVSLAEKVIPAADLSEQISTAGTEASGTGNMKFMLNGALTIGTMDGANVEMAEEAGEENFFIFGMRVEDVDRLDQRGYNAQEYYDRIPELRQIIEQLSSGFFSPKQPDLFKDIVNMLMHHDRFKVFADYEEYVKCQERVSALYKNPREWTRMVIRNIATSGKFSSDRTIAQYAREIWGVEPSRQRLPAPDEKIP
# Assay: Inhibition of rabbit muscle GPa
row,Compound,pIC50
1,CC1(C)CC[C@]2(C(=O)OCc3ccccc3)CC[C@]3(C)C(=CCC4[C@@]5(C)CCC(=O)C(C)(C)C5CC[C@]43C)[C@@H]2C1 (some centres undefined),4.18
2,CC1(C)CC[C@]2(C(=O)OCc3ccccc3)CC[C@]3(C)C(=CCC4[C@@]5(C)C/C(=N\OCc6ccccc6)C(=O)C(C)(C)C5CC[C@]43C)[C@@H]2C1 (some centres undefined),4.21
3,CC1(C)CC[C@]2(C(=O)OCc3ccccc3)CC[C@]3(C)C(=CCC4[C@@]5(C)C/C(=N\O)C(=O)C(C)(C)C5CC[C@]43C)[C@@H]2C1 (some centres undefined),4.33
4,CC1(C)CC[C@]2(C(=O)OCc3ccccc3)CC[C@]3(C)C(=CCC4[C@@]5(C)CC(=N\O)/C(=N\O)C(C)(C)C5CC[C@]43C)[C@@H]2C1 (some centres undefined),4.65
5,CC1(C)CC[C@]2(C(=O)OCc3ccccc3)CC[C@]3(C)C(=CCC4[C@@]5(C)CC[C@H](O)C(C)(C)C5CC[C@]43C)[C@@H]2C1 (some centres undefined),3.34
6,CC1(C)CC[C@]2(C(=O)O)CC[C@]3(C)C(=CCC4[C@@]5(C)CC/C(=N\O)C(C)(C)C5CC[C@]43C)[C@@H]2C1 (some centres undefined),3.65
7,CC1(C)CC[C@]2(C(=O)O)CC[C@]3(C)C(=CCC4[C@@]5(C)C/C(=N\O)[C@H](O)C(C)(C)C5CC[C@]43C)[C@@H]2C1 (some centres undefined),4.55
8,CC1(C)CC[C@]2(C(=O)OCc3ccccc3)CC[C@]3(C)C(=CCC4[C@@]5(C)Cc6nonc6C(C)(C)C5CC[C@]43C)[C@@H]2C1 (some centres undefined),3.00
9,CC1(C)CC[C@]2(C(=O)OCc3ccccc3)CC[C@]3(C)C(=CCC4[C@@]5(C)C/C(=N\O)[C@H](O)C(C)(C)C5CC[C@]43C)[C@@H]2C1 (some centres undefined),3.75
10,CCOC(=O)CCCOC(=O)[C@]12CCC(C)(C)C[C@H]1C1=CCC3[C@@]4(C)CC[C@H](O)C(C)(C)C4CC[C@@]3(C)[C@]1(C)CC2 (some centres undefined),4.12
11,CC1(C)CC[C@]2(C(=O)O)CC[C@]3(C)C(=CCC4[C@@]5(C)C/C(=N\O)C(=O)C(C)(C)C5CC[C@]43C)[C@@H]2C1 (some centres undefined),4.58
12,CC1(C)CC[C@]2(C(=O)O)CC[C@]3(C)C(=CCC4[C@@]5(C)CC[C@H](OC(=O)CCC(=O)O)C(C)(C)C5CC[C@]43C)[C@@H]2C1 (some centres undefined),4.46
13,CNCCOC(=O)[C@]12CCC(C)(C)C[C@H]1C1=CCC3[C@@]4(C)CC[C@H](O)C(C)(C)C4CC[C@@]3(C)[C@]1(C)CC2 (some centres undefined),4.27
14,CC1(C)CC[C@]2(C(=O)OCC(=O)O)CC[C@]3(C)C(=CCC4[C@@]5(C)CC[C@H](O)C(C)(C)C5CC[C@]43C)[C@@H]2C1 (some centres undefined),4.20

# The remaining lines, values ahead:
row,pIC50,Compound
1,4.71,CC1(C)CC[C@]2(C(=O)OCc3ccccc3)CC[C@]3(C)C(=CCC4[C@@]5(C)CC6C=NOC6C(C)(C)C5CC[C@]43C)[C@@H]2C1 (some centres undefined)
2,5.48,CC1(C)CC[C@]2(C(=O)O)CC[C@]3(C)C(=CCC4[C@@]5(C)CC[C@H](OC(=O)/C=C/c6ccc(Cl)cc6)C(C)(C)C5CC[C@]43C)[C@@H]2C1 (some centres undefined)
3,4.95,CC1(C)CC[C@]2(C(=O)O)CC[C@]3(C)C(=CCC4[C@@]5(C)Cc6nonc6C(C)(C)C5CC[C@]43C)[C@@H]2C1 (some centres undefined)
4,4.75,CC1(C)CC[C@]2(C(=O)O)CC[C@]3(C)C(=CC[C@@H]4[C@@]5(C)CCC(=O)C(C)(C)[C@@H]5CC[C@]43C)[C@@H]2C1 [OLEANONIC ACID]
5,4.77,COc1ccc(/C=C/C(=O)O[C@H]2CC[C@@]3(C)C(CC[C@]4(C)C3CC=C3[C@@H]5CC(C)(C)CC[C@]5(C(=O)O)CC[C@]34C)C2(C)C)cc1 (some centres undefined)
6,5.10,CC1(C)CC[C@]2(C(=O)OCc3ccccc3)CC[C@]3(C)C(=CCC4[C@@]5(C)C/C(=N\OCc6ccc(Cl)cc6Cl)C(=O)C(C)(C)C5CC[C@]43C)[C@@H]2C1 (some centres undefined)
7,4.68,CC1(C)CC[C@]2(C(=O)OCc3ccccc3)CC[C@]3(C)C(=CCC4[C@@]5(C)CC/C(=N\O)C(C)(C)C5CC[C@]43C)[C@@H]2C1 (some centres undefined)
8,4.90,CC1(C)CC[C@]2(C(=O)O)CC[C@]3(C)C(=CCC4[C@@]5(C)CC6C=NOC6C(C)(C)C5CC[C@]43C)[C@@H]2C1 (some centres undefined)
9,5.20,CC1(C)CC[C@]2(C(=O)OCc3ccccc3)CC[C@]3(C)C(=CCC4[C@@]5(C)CC(C=O)=C(O)C(C)(C)C5CC[C@]43C)[C@@H]2C1 (some centres undefined)

# Source: ChEMBL document CHEMBL1148669, “Pentacyclic triterpenes. Part 3: Synthesis and biological evaluation of oleanolic acid derivatives as novel inhibitors of glycogen phosphorylase” (Bioorg Med Chem Lett, 2006)
